In ChEMBL document CHEMBL5505963, “Novel berberine derivatives as p300 histone acetyltransferase inhibitors in combination treatment for breast cancer” (Eur J Med Chem, 2024):
The source made the active and inactive calls. No cut-off for these calls is given here.

Columns and labels:
MCF7 [1] = assay: Synergistic antiproliferative activity against human MCF7 cells assessed as combination index at 10 uM incubated for 48 hrs in presence of 3 microg/ml doxorubicin by Chou-Talalay method; assay type: functional
MCF7 [2] = assay: Downregulation of survivin level in human MCF7 cells at 40 uM incubated for 24 hrs in presence of doxorubicin by Western blot analysis; assay type: functional, cell-based
MCF7 [3] = assay: Synergistic antiproliferative activity against human MCF7 cells assessed as combination index at 40 uM incubated for 48 hrs in presence of 2 microg/ml doxorubicin by Chou-Talalay method; assay type: functional
MCF7 [4] = assay: Inhibition of cell invasion in human MCF7 cells measured after 24 hrs in presence of doxorubicin by crystal violet staining based microscopic analysis; assay type: functional
MCF7 [5] = assay: Synergistic antiproliferative activity against human MCF7 cells assessed as combination index at 5 uM incubated for 48 hrs in presence of 1 microg/ml doxorubicin by Chou-Talalay method; assay type: functional
MCF7 [6] = assay: Synergistic antiproliferative activity against human MCF7 cells assessed as combination index at 20 uM incubated for 48 hrs in presence of 3 microg/ml doxorubicin by Chou-Talalay method; assay type: functional
MCF7 [7] = assay: Synergistic antiproliferative activity against human MCF7 cells assessed as combination index at 10 uM incubated for 48 hrs in presence of 1 microg/ml doxorubicin by Chou-Talalay method; assay type: functional
MCF7 [8] = assay: Downregulation of H3K27 level in human MCF7 cells upto 160 uM incubated for 24 hrs in presence of doxorubicin by Western blot analysis; assay type: functional, cell-based
[9] = Toxicity in BALB/c nude mouse xenografted with human MCF7 cells assessed as loss of body weight at 50 mg/kg, ip measured upto 14 days; assay type: organism-based; conditions: in vivo, 336 h, time < 14 day
MCF7 [10] = assay: Synergistic antiproliferative activity against human MCF7 cells assessed as combination index at 10 uM incubated for 48 hrs in presence of 0.5 microg/ml doxorubicin by Chou-Talalay method; assay type: functional
MCF7 [11] = assay: Antitumor activity against human MCF7 cells xenografted in BALB/c nude mouse assessed as tumor growth inhibition at 50 mg/kg, ip measured upto 14 days; assay type: functional; conditions: MCF7, 336 h, time <= 14 day, read-out: TGI
MCF7 [12] = assay: Synergistic antiproliferative activity against human MCF7 cells assessed as combination index at 40 uM incubated for 48 hrs in presence of 2.5 microg/ml doxorubicin by Chou-Talalay method; assay type: functional
PANC-1 = assay: Antiproliferative activity against human PANC-1 cells assessed as inhibition of cell growth incubated for 48 hrs by MTT assay; assay type: functional, cell-based; conditions: PANC-1, 48 h
MCF7 [13] = assay: Synergistic antiproliferative activity against human MCF7 cells assessed as combination index at 40 uM incubated for 48 hrs in presence of 3 microg/ml doxorubicin by Chou-Talalay method; assay type: functional
MCF7 [14] = assay: Synergistic antiproliferative activity against human MCF7 cells assessed as combination index at 10 uM incubated for 48 hrs in presence of 1.5 microg/ml doxorubicin by Chou-Talalay method; assay type: functional
MCF7 [15] = assay: Synergistic antiproliferative activity against human MCF7 cells assessed as combination index at 20 uM incubated for 48 hrs in presence of 1 microg/ml doxorubicin by Chou-Talalay method; assay type: functional
MCF7 [16] = assay: Synergistic antiproliferative activity against human MCF7 cells assessed as combination index at 20 uM incubated for 48 hrs in presence of 1.5 microg/ml doxorubicin by Chou-Talalay method; assay type: functional
MCF7 [17] = assay: Induction of apoptosis in human MCF7 cells assessed as upregulation of cleaved PARP level at 40 uM incubated for 24 hrs in presence of doxorubicin by Western blot analysis; assay type: functional, cell-based
MCF7 [18] = assay: Antitumor activity against human MCF7 cells xenografted in BALB/c nude mouse assessed as tumor growth inhibition at 50 mg/kg, ip measured upto 14 days in presence of doxorubicin; assay type: functional; conditions: MCF7, 336 h, time <= 14 day, read-out: TGI
MCF7 [19] = assay: Inhibition of cell invasion in human MCF7 cells measured after 24 hrs by crystal violet staining based microscopic analysis; assay type: functional
MCF7 [20] = assay: Induction of apoptosis in human MCF7 cells assessed as upregulation of cleaved caspase 3 level at 40 uM incubated for 24 hrs in presence of doxorubicin by Western blot analysis; assay type: functional, cell-based
MCF7 [21] = assay: Synergistic antiproliferative activity against human MCF7 cells assessed as combination index at 10 uM incubated for 48 hrs in presence of 2 microg/ml doxorubicin by Chou-Talalay method; assay type: functional
MCF7 [22] = assay: Synergistic antiproliferative activity against human MCF7 cells assessed as reduction in cell viability at 5 to 20 uM incubated for 48 hrs in presence of 2.5 microg/ml doxorubicin by MTT assay; assay type: functional; conditions: dose 5-20 µM
MCF7 [23] = assay: Synergistic antiproliferative activity against human MCF7 cells assessed as combination index at 40 uM incubated for 48 hrs in presence of 1.5 microg/ml doxorubicin by Chou-Talalay method; assay type: functional
[24] = target: Histone acetyltransferase p300 (Homo sapiens, UniProt Q09472); assay: Inhibition of p300 HAT (unknown origin) using 3H-acetyl-CoA as substrate assessed as H3 peptide acetylation preincubated with compound for 15 mins followed by substrate addition and measured after 30 mins by microbeta scintillation counter analysis
MCF7 [25] = assay: Antiproliferative activity against human MCF7 cells assessed as inhibition of cell proliferation incubated for 48 hrs by MTT assay; assay type: functional, cell-based; conditions: MCF7, 48 h
MCF7 [26] = assay: Synergistic antiproliferative activity against human MCF7 cells assessed as combination index at 20 uM incubated for 48 hrs in presence of 0.5 microg/ml doxorubicin by Chou-Talalay method; assay type: functional
MCF7 [27] = assay: Synergistic antiproliferative activity against human MCF7 cells assessed as combination index at 5 uM incubated for 48 hrs in presence of 1.5 microg/ml doxorubicin by Chou-Talalay method; assay type: functional
MCF7 [28] = assay: Synergistic antiproliferative activity against human MCF7 cells assessed as combination index at 5 uM incubated for 48 hrs in presence of 2.5 microg/ml doxorubicin by Chou-Talalay method; assay type: functional
MCF7 [29] = assay: Synergistic antiproliferative activity against human MCF7 cells assessed as reduction in cell viability at 5 to 20 uM incubated for 48 hrs in presence of 40 microg/ml doxorubicin by MTT assay; assay type: functional; conditions: dose 5-20 µM
MCF7 [30] = assay: Synergistic antiproliferative activity against human MCF7 cells assessed as combination index at 5 uM incubated for 48 hrs in presence of 3 microg/ml doxorubicin by Chou-Talalay method; assay type: functional
MCF-10A = assay: Antiproliferative activity against human MCF-10A cells assessed as inhibition of cell growth incubated for 48 hrs by MTT assay; assay type: functional, cell-based
MCF7 [31] = assay: Synergistic antiproliferative activity against human MCF7 cells assessed as combination index at 5 uM incubated for 48 hrs in presence of 2 microg/ml doxorubicin by Chou-Talalay method; assay type: functional
MCF7 [32] = assay: Antiproliferative activity against human MCF7 cells assessed as inhibition of cell growth incubated for 48 hrs by MTT assay; assay type: functional, cell-based; conditions: MCF7, 48 h
MCF7 [33] = assay: Synergistic antiproliferative activity against human MCF7 cells assessed as combination index at 5 uM incubated for 48 hrs in presence of 0.5 microg/ml doxorubicin by Chou-Talalay method; assay type: functional
MCF7 [34] = assay: Inhibition of cell migration in human MCF7 cells assessed as measured after 24 hrs in presence of doxorubicin by microscopic analysis; assay type: functional
MCF7 [35] = assay: Downregulation of H3K27 level in human MCF7 cells incubated for 24 hrs by Western blot analysis; assay type: functional, cell-based; conditions: dose <= 160.0 µM
MCF7 [36] = assay: Synergistic antiproliferative activity against human MCF7 cells assessed as combination index at 20 uM incubated for 48 hrs in presence of 2 microg/ml doxorubicin by Chou-Talalay method; assay type: functional
MCF7 [37] = assay: Synergistic antiproliferative activity against human MCF7 cells assessed as combination index at 40 uM incubated for 48 hrs in presence of 0.5 microg/ml doxorubicin by Chou-Talalay method; assay type: functional
MCF7 [38] = assay: Synergistic antiproliferative activity against human MCF7 cells assessed as combination index at 20 uM incubated for 48 hrs in presence of 2.5 microg/ml doxorubicin by Chou-Talalay method; assay type: functional
MCF7 [39] = assay: Synergistic antiproliferative activity against human MCF7 cells assessed as combination index at 10 uM incubated for 48 hrs in presence of 2.5 microg/ml doxorubicin by Chou-Talalay method; assay type: functional
MCF7 [40] = assay: Synergistic antiproliferative activity against human MCF7 cells assessed as reduction in cell viability at 5 to 20 uM incubated for 48 hrs in presence of 1 microg/ml doxorubicin by MTT assay; assay type: functional; conditions: dose 5-20 µM
MCF7 [41] = assay: Downregulation of c-Myc level in human MCF7 cells at 40 uM incubated for 24 hrs in presence of doxorubicin by Western blot analysis; assay type: functional, cell-based
MCF7 [42] = assay: Inhibition of cell migration in human MCF7 cells assessed as reduction in scratch measured after 24 hrs by microscopic analysis; assay type: functional
LNCaP = assay: Antiproliferative activity against human LNCaP cells assessed as inhibition of cell growth incubated for 48 hrs by MTT assay; assay type: functional, cell-based
MCF7 [43] = assay: Synergistic antiproliferative activity against human MCF7 cells assessed as combination index at 40 uM incubated for 48 hrs in presence of 1 microg/ml doxorubicin by Chou-Talalay method; assay type: functional

Sequence of Histone acetyltransferase p300 (Q09472 whole entry): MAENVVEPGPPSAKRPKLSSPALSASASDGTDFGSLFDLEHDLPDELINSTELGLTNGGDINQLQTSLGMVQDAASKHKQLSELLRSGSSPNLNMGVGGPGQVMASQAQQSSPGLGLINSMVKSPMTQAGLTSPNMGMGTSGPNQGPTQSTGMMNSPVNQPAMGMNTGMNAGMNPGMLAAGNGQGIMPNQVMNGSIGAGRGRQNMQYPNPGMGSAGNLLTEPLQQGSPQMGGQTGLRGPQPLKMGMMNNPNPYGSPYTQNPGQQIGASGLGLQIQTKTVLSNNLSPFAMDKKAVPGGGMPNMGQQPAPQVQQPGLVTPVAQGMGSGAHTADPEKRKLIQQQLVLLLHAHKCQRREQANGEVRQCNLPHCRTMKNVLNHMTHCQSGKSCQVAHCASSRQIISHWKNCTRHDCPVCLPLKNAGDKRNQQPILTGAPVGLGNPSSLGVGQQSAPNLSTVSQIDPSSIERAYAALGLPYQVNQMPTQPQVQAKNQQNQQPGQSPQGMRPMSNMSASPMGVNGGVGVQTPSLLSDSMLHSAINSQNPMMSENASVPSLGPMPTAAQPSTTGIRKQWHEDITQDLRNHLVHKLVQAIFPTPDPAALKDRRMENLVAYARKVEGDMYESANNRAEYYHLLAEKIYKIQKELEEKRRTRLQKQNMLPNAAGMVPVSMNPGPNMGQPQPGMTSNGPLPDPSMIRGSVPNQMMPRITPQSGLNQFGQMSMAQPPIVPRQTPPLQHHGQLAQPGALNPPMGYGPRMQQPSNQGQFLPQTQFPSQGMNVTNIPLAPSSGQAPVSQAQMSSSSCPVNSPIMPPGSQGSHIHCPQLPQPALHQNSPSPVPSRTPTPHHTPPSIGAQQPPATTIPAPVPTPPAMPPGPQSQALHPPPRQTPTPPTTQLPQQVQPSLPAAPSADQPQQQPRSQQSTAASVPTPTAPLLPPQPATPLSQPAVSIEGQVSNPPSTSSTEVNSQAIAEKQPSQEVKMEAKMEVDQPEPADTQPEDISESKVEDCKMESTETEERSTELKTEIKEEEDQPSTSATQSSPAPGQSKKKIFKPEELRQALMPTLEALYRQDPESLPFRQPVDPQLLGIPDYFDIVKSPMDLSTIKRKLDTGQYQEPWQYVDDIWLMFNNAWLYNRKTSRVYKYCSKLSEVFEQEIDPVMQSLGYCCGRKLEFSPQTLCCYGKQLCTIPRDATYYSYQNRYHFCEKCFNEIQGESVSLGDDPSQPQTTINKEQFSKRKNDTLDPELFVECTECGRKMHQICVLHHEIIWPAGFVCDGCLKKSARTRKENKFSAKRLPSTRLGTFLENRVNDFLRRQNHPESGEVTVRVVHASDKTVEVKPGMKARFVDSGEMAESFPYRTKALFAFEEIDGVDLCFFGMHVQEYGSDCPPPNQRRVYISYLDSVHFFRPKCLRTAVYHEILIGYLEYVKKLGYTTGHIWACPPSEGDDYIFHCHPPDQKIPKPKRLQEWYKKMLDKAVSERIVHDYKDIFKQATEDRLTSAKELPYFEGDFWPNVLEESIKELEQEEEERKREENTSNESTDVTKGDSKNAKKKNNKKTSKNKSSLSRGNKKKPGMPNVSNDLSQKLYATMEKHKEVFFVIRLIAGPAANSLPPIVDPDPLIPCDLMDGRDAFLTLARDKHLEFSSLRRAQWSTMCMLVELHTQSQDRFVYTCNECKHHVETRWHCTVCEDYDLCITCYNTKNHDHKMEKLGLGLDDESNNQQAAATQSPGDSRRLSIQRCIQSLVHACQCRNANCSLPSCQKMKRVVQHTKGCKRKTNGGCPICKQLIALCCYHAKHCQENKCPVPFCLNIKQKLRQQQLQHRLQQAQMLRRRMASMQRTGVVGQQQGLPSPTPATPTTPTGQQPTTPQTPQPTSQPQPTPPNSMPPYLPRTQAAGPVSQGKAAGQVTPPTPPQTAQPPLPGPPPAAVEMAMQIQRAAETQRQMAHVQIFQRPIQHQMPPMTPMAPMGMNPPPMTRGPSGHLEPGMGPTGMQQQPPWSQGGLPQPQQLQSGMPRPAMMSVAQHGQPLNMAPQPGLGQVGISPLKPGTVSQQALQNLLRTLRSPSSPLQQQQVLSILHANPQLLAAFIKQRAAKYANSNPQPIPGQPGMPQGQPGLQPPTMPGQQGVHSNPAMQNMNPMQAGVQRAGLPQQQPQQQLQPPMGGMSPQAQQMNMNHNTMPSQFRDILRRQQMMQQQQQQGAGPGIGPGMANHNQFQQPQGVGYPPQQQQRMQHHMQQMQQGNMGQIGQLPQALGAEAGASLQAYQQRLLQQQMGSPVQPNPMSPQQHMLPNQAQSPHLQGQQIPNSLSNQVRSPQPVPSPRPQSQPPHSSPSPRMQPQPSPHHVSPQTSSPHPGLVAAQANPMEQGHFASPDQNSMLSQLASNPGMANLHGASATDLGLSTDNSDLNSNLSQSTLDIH

SMILES: COc1cc2cc3[n+](cc2cc1OC)CCOc1cc2c(cc1-3)OCO2.[Cl-]
- CI (MCF7 [1]): 13.65
- Activity (MCF7 [2]): Active
- CI (MCF7 [3]): 0.66
- inhibition (MCF7 [4]): Active
- CI (MCF7 [5]): 165.98
- CI (MCF7 [6]): 1.86
- CI (MCF7 [7]): 37.99
- Activity (MCF7 [8]): Active
- Activity [9]: Non-Toxic
- CI (MCF7 [10]): 88.25
- inhibition in vivo at 50 mg/kg (MCF7 [11]): 59.9%
- CI (MCF7 [12]): 0.6
- IC50 (PANC-1): > 50 µM
- CI (MCF7 [13]): 0.55
- CI (MCF7 [14]): 38.44
- CI (MCF7 [15]): 3.44
- CI (MCF7 [16]): 3.59
- Activity (MCF7 [17]): Active
- inhibition in vivo at 50 mg/kg (MCF7 [18]): 83.9%
- inhibition (MCF7 [19]): Active
- Activity (MCF7 [20]): Active
- CI (MCF7 [21]): 80.19
- Activity (MCF7 [22]): 27%
- CI (MCF7 [23]): 0.57
- IC50 [24]: 1.51 µM
- IC50 (MCF7 [25]): 17.3 µM
- CI (MCF7 [26]): 3.11
- CI (MCF7 [27]): 94.38
- CI (MCF7 [28]): 57.34
- Activity (MCF7 [29]): 36%
- CI (MCF7 [30]): 39.24
- IC50 (MCF-10A): > 50 µM
- CI (MCF7 [31]): 113.55
- IC50 (MCF7 [32]): 17.3 µM
- CI (MCF7 [33]): 517.04
- inhibition (INH) (MCF7 [34]): 34.22%
- Activity (MCF7 [35]): Dose-Dependent Effect
- CI (MCF7 [36]): 2.65
- CI (MCF7 [37]): 1.85
- CI (MCF7 [38]): 2.28
- CI (MCF7 [39]): 12.07
- Activity (MCF7 [40]): 36%
- Activity (MCF7 [41]): Active
- inhibition (INH) (MCF7 [42]): 52.05%
- IC50 (LNCaP): 43.7 µM
- CI (MCF7 [43]): 0.59
